Source: ChEMBL document CHEMBL1201862, “PubChem BioAssay data set” (2004)
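Interpolation was linear, between the two tested concentrations surrounding the appropriate level; five concentrations were tested over 48 hours in 96-well plates. At the GI50, growth is halved.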 Active and inactive are the calls of the source. Rule as the data show it: active = GI50 up to about 1.1 µM and inactive = higher.

Assays:
Assay in all cases: NCI-60 cell line screen, 48 h
786-0 = tested on: 786-0
A549 = tested on: A549
ACHN = tested on: ACHN
CAKI-1 = tested on: CAKI-1
CCRF-CEM = tested on: CCRF-CEM
COLO 205 = tested on: COLO 205
DLD-1 = tested on: DLD-1
HCC 2998 = tested on: HCC 2998
HCT-116 = tested on: HCT-116
HCT-15 = tested on: HCT-15
HL-60 = tested on: HL-60
HOP-62 = tested on: HOP-62
HT-29 = tested on: HT-29
IGROV-1 = tested on: IGROV-1
K562 = tested on: K562
KM-20L2 = tested on: KM-20L2
KM12 = tested on: KM12
LOX IMVI = tested on: LOX IMVI
LXFL 529 = tested on: LXFL 529
M14 = tested on: M14
M19-MEL = tested on: M19-MEL
MOLT-4 = tested on: MOLT-4
Malme-3M = tested on: Malme-3M
NCI-H226 = tested on: NCI-H226
NCI-H23 = tested on: NCI-H23
NCI-H460 = tested on: NCI-H460
NCI-H522 = tested on: NCI-H522
OVCAR-3 = tested on: OVCAR-3
OVCAR-4 = tested on: OVCAR-4
OVCAR-5 = tested on: OVCAR-5
OVCAR-8 = tested on: OVCAR-8
RPMI-8226 = tested on: RPMI-8226
RXF 393 = tested on: RXF 393
SF-268 = tested on: SF-268
SF-295 = tested on: SF-295
SF-539 = tested on: SF-539
SK-MEL-28 = tested on: SK-MEL-28
SK-MEL-5 = tested on: SK-MEL-5
SK-OV-3 = tested on: SK-OV-3
SN12C = tested on: SN12C
SNB-19 = tested on: SNB-19
SNB-75 = tested on: SNB-75
SNB-78 = tested on: SNB-78
SR = tested on: SR
SW-620 = tested on: SW-620
TK-10 = tested on: TK-10
U-251 = tested on: U-251
UACC-257 = tested on: UACC-257
UACC-62 = tested on: UACC-62
UO-31 = tested on: UO-31

CC(=O)OC[C@]1(C)CCCC2(C)C1CCC1C=C(C)[C@H]3CCC12C3 (stereo not given in full)
GI50 (786-0): 66.2 µM (inactive)
GI50 (A549): 65.2 µM (inactive)
GI50 (ACHN): > 100 µM (inactive)
GI50 (CAKI-1): > 100 µM (inactive)
GI50 (CCRF-CEM): > 100 µM (inactive)
GI50 (COLO 205): 38.5 µM (inactive)
GI50 (DLD-1): 99.3 µM (inactive)
GI50 (HCC 2998): > 100 µM (inactive)
GI50 (HCT-116): 47.4 µM (inactive)
GI50 (HCT-15): 48.3 µM
GI50 (HL-60): > 100 µM (inactive)
GI50 (HOP-62): 50.9 µM (inactive)
GI50 (HT-29): 43.3 µM (inactive)
GI50 (IGROV-1): > 100 µM (inactive)
GI50 (K562): > 100 µM (inactive)
GI50 (KM-20L2): 42.9 µM (inactive)
GI50 (KM12): 52.6 µM (inactive)
GI50 (LOX IMVI): 47.5 µM (inactive)
GI50 (LXFL 529): > 100 µM (inactive)
GI50 (M14): 35.2 µM (inactive)
GI50 (M19-MEL): 63.4 µM (inactive)
GI50 (MOLT-4): > 100 µM (inactive)
GI50 (Malme-3M): > 100 µM (inactive)
GI50 (NCI-H226): > 100 µM (inactive)
GI50 (NCI-H23): 94.4 µM (inactive)
GI50 (NCI-H460): 33.7 µM (inactive)
GI50 (NCI-H522): 10.6 µM (inactive)
GI50 (OVCAR-3): 61.4 µM (inactive)
GI50 (OVCAR-4): > 100 µM (inactive)
GI50 (OVCAR-5): > 100 µM (inactive)
GI50 (OVCAR-8): > 100 µM (inactive)
GI50 (RPMI-8226): 62.7 µM (inactive)
GI50 (RXF 393): 44.4 µM (inactive)
GI50 (SF-268): 37.8 µM (inactive)
GI50 (SF-295): 35 µM (inactive)
GI50 (SF-539): 25.5 µM (inactive)
GI50 (SK-MEL-28): 60.5 µM (inactive)
GI50 (SK-MEL-5): > 100 µM (inactive)
GI50 (SK-OV-3): 44.1 µM (inactive)
GI50 (SN12C): 40.3 µM (inactive)
GI50 (SNB-19): > 100 µM (inactive)
GI50 (SNB-75): 31.8 µM (inactive)
GI50 (SNB-78): 45.9 µM (inactive)
GI50 (SR): > 100 µM (inactive)
GI50 (SW-620): 31.6 µM (inactive)
GI50 (TK-10): > 100 µM (inactive)
GI50 (U-251): 39.7 µM (inactive)
GI50 (UACC-257): 61.7 µM (inactive)
GI50 (UACC-62): 56.9 µM (inactive)
GI50 (UO-31): > 100 µM (inactive)
